# Reference: patent publication US10730922B2, “Composition and method for affecting the binding of antigen-binding polypeptides to antigens” (Miltenyi Biotec GmbH, priority 2016, dated 2020)
# How the values were obtained:
# Assay type in all cases: binding, human
# CD4 = experiment: Competitive staining of PBMC with anti-CD4 scFv-CaM-fusions, flow cytometry; details: FIG. 7C
# Source text: (§1) To investigate whether the linkers identified to provide modulation of binding in scFv D1.3 can be used as a “universal” module to change binding properties in other scFv fragments than D1.3, the characterized CaM-linker variants were cloned into other scFv antibodies with different specificities. The specificities were chosen according to their utility in future cell staining and separation applications, with two scFvs directed against different human clusters of differentiation (CD14, CD4) and the small hapten biotin. To identify M13 peptide-dependent scFv-CaM-variants for those specificities, human blood cells (PBMC) were stained using purified scFvs and subsequently analysed by flow cytometry. Bound scFvs were detected with fluorescently labeled anti-His-antibodies.
# (§2) The production and purification of different scFv-fusions was performed as described in Example 3. All antibodies and staining reagents used for flow cytometry applications were from Miltenyi Biotec (Bergisch Gladbach, Germany). For stainings with anti-Biotin scFv-variants, PBMC (peripheral blood mononuclear cells) were prestained with appropriate IgG-conjugates. The stainings were performed in 1.5 mL microtubes. 1×10^6 PBMC per sample were incubated on ice for 10 min in 110 μL 1×B-TBS (1×TBS+0.5% [w/v] bovine serum albumin)+5 mM CaCl2 (pH 7.4) containing anti-CD14-Biotin (dilution: 1:11). The reaction was stopped by addition of 1 mL buffer and centrifugation at 300 g for 5 min at 4° C. The supernatant was removed completely and the pellet was stored on ice and resuspended in buffer immediately before the next staining step. The following stainings were performed in 96-well polypropylene plates. Purified scFvs were diluted to appropriate concentrations in 50 μL 1×B-TBS/5 mM CaCl2 (pH 7.4 [anti-Biotin] or pH 8.0 [anti-CD14, anti-CD4]) per well. For competitive screenings, peptide (M13 peptide [Anaspec, Fremont, USA], M13-variants library and CBP (calmodulin-binding peptide) library [Genscript, Piscataway, USA]) was added in molar excess in a total volume of 5 μL per well, whereas the control stainings were supplied with 5 μL 1×B-TBS/5 mM CaCl2. The diluted scFvs were preincubated for 45 min at RT and afterwards chilled on ice for 5 min. […]
# (§3) Calmodulin binds to a variety of binding partners. […] On the one hand, 38 mutated variants of the M13 peptide were analysed, e.g. substitution mutants known to have higher affinities for calmodulin, truncated variants and combinations thereof. In addition, 29 peptides derived from further calmodulin-binding proteins like calcium ATPase, spectrin and nitric oxidase synthase were analysed with regard to potential binding modulating properties. […]
# CD14 = experiment: Competitive staining of PBMC with anti-CD14 scFv-CaM-fusions, flow cytometry; details: peptide in molar excess, FIG. 7A
# Source text: as §1, §2, §3
# [1] = Competitive staining of anti-CD14-Biotin prestained PBMC with anti-Biotin scFv-CaM-fusions, flow cytometry; details: opposite relative to M13 peptide, FIG. 7B
# Source text: as §1
# The production and purification of different scFv-fusions was performed as described in Example 3. […]
# as §3
substance,measurement,setting,value
CBP-Var10: derived from ionotropic glutamate receptor NMDA1 (KKKATFRAITSTLASSFKRRRSSK; CBP-Var10; peptide from protein of Homo sapiens),"change in binding signal, linear anti-CD4 scFv clone",CD4,unexpected decrease in binding signal
M13-Var5: variant of the known high affinity mutant of M13 (RWKKAFIAVSAANRFKKIS; M13-Var5),"signal change compared to M13 peptide, anti-CD14 scFv clones permutated in the middle of CaM and linear clone",CD14,higher signal decrease
M13-Var6: variant of the known high affinity mutant of M13 (WKKAFIAVSAANRFKKIS; M13-Var6),"signal change compared to M13 peptide, anti-CD14 scFv clones permutated in the middle of CaM and linear clone",CD14,higher signal decrease
M13 peptide: calmodulin-binding peptide M13 (residues 577-602 of skeletal muscle myosin light chain kinase) [reference compound],"change in binding signal, linear anti-CD4 scFv clone",CD4,did not have any influence at all
same,"change in binding signal, C-terminally permutated clones of anti-CD4 scFv","CD4; peptide in molar excess, 'the same effect' refers to further increase in fluorescence intensity",increase in binding signal
"CBP-Var8: calmodulin-binding peptide, a derivative of spectrin (KTASPWKSARLMVHTVATFNSIKE; CBP-Var8; peptide from protein of Homo sapiens)","signal change compared to M13 peptide, anti-CD14 scFv C-terminally permutated and linear variant",CD14,slightly higher decrease
CBP-Var6: another derivative of calcium-transporting ATPase (RGQILWFRGLNRIQTQIKVVNAFS; CBP-Var6; peptide derived from protein of Gallus gallus),"change in fluorescence intensity, anti-CD4 scFv M-variants",CD4; relative to M13 peptide,further increase in fluorescence intensity
same,"switching behaviour, anti-Biotin scFv-CaM-fusions M-1, M-2",[1],opposite switching behaviour
M13-Var7: variant of the known high affinity mutant of M13 (RWKKAFIAVSAANRFKKI; M13-Var7),"signal change compared to M13 peptide, anti-CD14 scFv clones permutated in the middle of CaM and linear clone",CD14,higher signal decrease
